Data from patent US10857155B2, “Compounds targeting proteins, compositions, methods, and uses thereof” (BioTheryX, Inc., priority 2017, dated 2020).

Columns and labels:
Type in all cases: cell-based
Molm-13 cells = assay: Cell viability assay (CellTiter-Glo), Molm-13 cells; settings: Homo sapiens, 72 h, 3 days; for viability at 10 µM: MOLM-13, 10 μM; for viability at 0.5 µM: MOLM-13, 0.5 μM
Protocol: FIG. 5 represents antiproliferative activity in Molm-13 cells. The cells were incubated with Compound 1, 2, or 3 (at the indicated concentration), DMSO, or pomalidomide. Compound activity was measured based on the signal from remaining viable cells.
(§1) Molm-13 cells were cultivated in RPMI-1640 (10% FBS/1% pen-strep) and were plated in white walled 96-well plates at 20,000 cells/well. H1048 cells were cultured in DMEM:F12 media supplemented with 5% fetal bovine serum, insulin, transferrin, sodium selenite, hydrocortisone, estradiol, penicillin and streptomycin, and were plated in white walled 96-well plates at 20,000 cells/well.
(§2) Cells were treated with compound at the indicated concentration or DMSO (control) and the cultures were incubated for 3 days at 37° C. and 5% CO2. Following the incubation period, 100 μL of CellTiterGlow (CTG) reagent (CellTiter-Glo® Luminescent Cell Viability Assay, Promega (Madison, Wis.)) was added to each well. Following a 10 min incubation with shaking, luminescence was measured using a Victor Wallac Luminometer.

IL-6 = IL-6 in LPS-induced PBMCs / CD14+ monocytes, Meso Scale assay
Protocol: (§3) FIG. 3 represents the activity against IL-6 in CD14, monocytes, plated in 96 well plates and pretreated with Compounds 1, 2, or 3, or pomalidomide, for 1 h and then induced with 100 ng/mL LPS for 18-24 h. Cytokines were measured according to MesoScale protocol. Negative control wells were treated with DMSO. Cells were treated with compound (at the indicated concentrations) or 10 μM pomalidomide. Compound activity was measured as a percentage of LPS-induced activity.
(§4) Either frozen primary blood mononuclear cells (PBMCs) or frozen CD14+ mobilized peripheral blood monocytes were purchased from AllCells (PB003F, Normal Peripheral Blood MNC (Alameda, Calif.)). Cells were quick thawed, washed 1-time with RPMI-1640 (10% FBS/1% Pen-Strep) and plated in 96 well plates at 200,000 cells per well. Cells were pretreated with DMSO only, pomalidomide or the indicated compounds for 1 h and then induced with 100 ng/mL lipopolysaccharide (LPS) for 18-24 h. The supernatant was analyzed for IL-1 beta, IL-6, and TNF-alpha, using Meso Scale assay according to manufacturer's protocol. The negative control wells were treated with DMSO.
(§5) Compound activity is measured as fold difference from the DMSO control. Compounds 1, 2, and 3 each reduced expression of IL-1-b in LPS-stimulated PBMCs by over 80% at 1 uM, relative to a just under 80% reduction with pomalidomide at 10 μM (FIG. 2).

IL-1β = assay: IL-1 beta in LPS-induced PBMCs / CD14+ monocytes, Meso Scale assay
Protocol: as §3, with “FIG. 2” for “FIG. 3”, “against IL-1-beta” for “against IL-6”, “in CD14” for “in CD14,”, “DMSO.” for “DMSO. Cells were treated with compound (at the indicated concentrations) or 10 μM pomalidomide.”
as §4, §5

TNF-α = assay: TNF-alpha in LPS-induced PBMCs / CD14+ monocytes, Meso Scale assay
Protocol: as §3, with “FIG. 4” for “FIG. 3”, “against TNF-alpha” for “against IL-6”, “protocol. The negative” for “protocol. Negative”
as §4, §5

GSPT1 = biological target: T1, GSPT1 (Homo sapiens, UniProt P15170); assay: Western blot analysis of GSPT1 protein levels in Jurkat cells; settings: DMSO = 100.00; for GSPT1 protein level (% of DMSO control) at 0.1 µM: 100 nM compound; for GSPT1 protein level (% of DMSO control) at 1 µM: 1 uM compound
T1 construct: Whole cell extract was prepared with RIPA buffer according to manufacturer's protocol; endogenous in cells; host or cells: Jurkat cells
T1 sequence (P15170 whole entry): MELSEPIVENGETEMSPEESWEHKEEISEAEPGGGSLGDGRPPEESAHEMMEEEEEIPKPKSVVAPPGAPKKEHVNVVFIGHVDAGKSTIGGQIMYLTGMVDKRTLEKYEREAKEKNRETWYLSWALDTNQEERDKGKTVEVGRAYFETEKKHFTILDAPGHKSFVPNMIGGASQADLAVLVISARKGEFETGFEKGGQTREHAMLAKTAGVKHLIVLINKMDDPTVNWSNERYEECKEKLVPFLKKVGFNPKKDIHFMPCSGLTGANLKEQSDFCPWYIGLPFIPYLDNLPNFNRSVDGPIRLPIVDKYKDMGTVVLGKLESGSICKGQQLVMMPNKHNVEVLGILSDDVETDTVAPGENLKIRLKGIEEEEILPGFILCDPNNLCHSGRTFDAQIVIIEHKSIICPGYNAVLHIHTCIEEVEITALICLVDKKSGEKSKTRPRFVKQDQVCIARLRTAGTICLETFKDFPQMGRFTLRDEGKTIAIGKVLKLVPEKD
Protocol: FIG. 1 represents the activity against CK1α, ikaros, and GPST1 in Jurkat cells, plated in 96 well plates. Cells were pretreated with compounds for 4 h and then lysed and protein levels measure via Western blots. The negative control wells were treated with DMSO. Cells were treated with the indicated compound at the indicated concentration. Compound activity is measured as a decrease in GSPT1 protein levels.
Western Blot Protocol: Cell lines were grown in RPMI 1640 supplemented with streptomycin, penicillin and 10% fetal bovine serum.
Jurkat cells were cultured at approximately 10^6 cells per mL, DMSO or the indicated compound was added to the cells and allowed to incubate for 6-8 h. Whole cell extract was prepared with RIPA buffer according to manufacturer's protocol (Pierce (Dallas, Tex.)). Briefly, ˜2×10^6 cells were washed once in PBS, the cell pellet was resuspended in RIPA buffer and allowed to incubate for 15 min on ice. Cell debris was removed by centrifugation and the cleared whole cell lysate was transferred to a new tube for further analysis.
For western blot analysis, whole cell extracts were separated on 4-12% SDS-polyacrylamide gels, transferred to nitrocellulose and probed with the indicated primary antibodies. Membranes were subsequently washed and probed with the appropriate horseradish peroxidase (HRP)-conjugated secondary antibody. Membranes were subsequently washed and probed with the appropriate IRDye secondary antibodies (LI-COR). The signal was detected using the Odyssey Imaging System (LI-COR).

H1048 cells = assay: Cell viability assay (CellTiter-Glo), H1048 cells; settings: Homo sapiens, NCI-H1048, 72 h, 3 days; for viability at 1 µM: H1048, 1 μM; for viability at 10 µM: H1048, 10 μM
Protocol: as §1, §2

IL-2 = IL-2 in PBMCs on anti-human CD3 (OKT3) coated plates, Mesoscale analysis; settings: PBMC, 24 h, relative to DMSO control, read-out: Fold Change IL-2
Protocol: For the IL-2 analysis, 96 well plates were precoated with 1 μg/mL anti-human CD3 antibody (OKT3, eBioscience Inc., San Diego, Calif.). After washing with PBS, compounds were added (50 μL/well) followed by PBMCs diluted at 3-4 million cells/mL (150 μL/well). Plates were incubated for 24 h and the supernatants collected for Mesoscale IL-2 analysis.
as §5

SMILES	viability at 10 µM (Molm-13 cells)	inhibition at 1 µM (IL-6)	inhibition at 1 µM (IL-1β)	inhibition at 1 µM (TNF-α)	GSPT1 protein level (% of DMSO control) at 0.1 µM (GSPT1)	GSPT1 protein level (% of DMSO control) at 1 µM (GSPT1)	viability at 1 µM (H1048 cells)	viability at 10 µM (H1048 cells)	fold induction at 1 µM (IL-2)	inhibition at 0.1 µM (IL-6)	inhibition at 0.1 µM (IL-1β)	inhibition at 0.1 µM (TNF-α)	fold induction at 0.1 µM (IL-2)	viability at 0.5 µM (Molm-13 cells)	viability at 1 µM (Molm-13 cells; MOLM-13, 1 μM)
O=C(Cc1ccc(C(F)(F)F)c(Cl)c1)NCc1ccc2c(c1)CN([C@H]1CCCC(=O)NC1=O)C2=O [Compound 10, (S)-2-(3-chloro-4-(trifluoromethyl)phenyl)-N-((2-(2,7-dioxoazepan-3-yl)-1-oxoisoindolin-5-yl)methyl)acetamide]	96%	67%	68%	67%	83.3%	49.3%	82.1%	21.5%	1.5						
Cc1ccc(CC(=O)NCc2ccc3c(c2)CN([C@H]2CCCC(=O)NC2=O)C3=O)cc1CN1CCOCC1 [Compound 11, (S)—N-((2-(2,7-dioxoazepan-3-yl)-1-oxoisoindolin-5-yl)methyl)-2-(4-methyl-3-(morpholinomethyl)phenyl)acetamide]	99%	5%	0%	12%	137%	56%	70.8%	11.6%	0.6						
COc1ccc(CC(=O)NCc2ccc3c(c2)CN([C@H]2CCCC(=O)NC2=O)C3=O)cc1Cl [Compound 13, (S)-2-(3-chloro-4-methoxyphenyl)-N-((2-(2,7-dioxoazepan-3-yl)-1-oxoisoindolin-5-yl)methyl)acetamide]	84%	85%	77%	53%	95.9%	46.2%	97.8%	44.2%	2.6						
O=C(Cc1cccc(CN2CCOCC2)c1)NCc1ccc2c(c1)CN([C@H]1CCCC(=O)NC1=O)C2=O [Compound 14, (S)—N-((2-(2,7-dioxoazepan-3-yl)-1-oxoisoindolin-5-yl)methyl)-2-(3-(morpholinomethyl)phenyl)acetamide]	28%				145%	82.8%	101%	56.2%		0%	0%	0%	0.9		
O=C(Cc1ccc(Cl)c(CN2CCOCC2)c1)NCc1ccc2c(c1)CN([C@H]1CCCC(=O)NC1=O)C2=O [Compound 15, (S)-2-(4-chloro-3-(morpholinomethyl)phenyl)-N-((2-(2,7-dioxoazepan-3-yl)-1-oxoisoindolin-5-yl)methyl)acetamide]	84%				167%	111%	93.3%	35%		0%	0%	0%	1		
Cc1ccc(NC(=O)NCc2ccc3c(c2C)CN([C@H]2CCCC(=O)NC2=O)C3=O)cc1Cl [Compound 16, (S)-1-(3-chloro-4-methylphenyl)-3-((2-(2,7-dioxoazepan-3-yl)-4-methyl-1-oxoisoindolin-5-yl)methyl)urea]					59.4%	39.3%	7.66%	3.93%		72%	72%	78%	1.7	70%	
Cc1ccc(NC(=O)NCc2cccc3c2CN([C@H]2CCCC(=O)NC2=O)C3=O)cc1Cl [Compound 17, (S)-1-(3-chloro-4-methylphenyl)-3-((2-(2,7-dioxoazepan-3-yl)-1-oxoisoindolin-4-yl)methyl)urea]	91%				131%	80.5%	95.5%	34.9%		0%	19%	18%	1.3		
Cc1ccc(CNC(=O)NCc2ccc3c(c2)CN([C@H]2CCCC(=O)NC2=O)C3=O)cc1Cl [Compound 18, (S)-1-(3-chloro-4-methylbenzyl)-3-((2-(2,7-dioxoazepan-3-yl)-1-oxoisoindolin-5-yl)methyl)urea]					69.7%	20.2%	14.2%	4.28%		41%	53%	48%	1.5	68%	
Cc1ccc(CCNC(=O)NCc2ccc3c(c2)CN([C@H]2CCCC(=O)NC2=O)C3=O)cc1Cl [Compound 19, (S)-1-(3-chloro-4-methylphenethyl)-3-((2-(2,7-dioxoazepan-3-v)-1-oxoisoindolin-5-yl)methyl)urea]						26.8%	8.26%	3.09%		17%	37%	33%	1.2		79%
Cc1ccc(CNC(=O)NCc2cccc3c2CN([C@H]2CCCC(=O)NC2=O)C3=O)cc1Cl [Compound 20, (S)-1-(3-chloro-4-methylbenzyl)-3-((2-(2,7-dioxoazepan-3-yl)-1-oxoisoindolin-4-yl)methyl)urea]	23%				126%	160%	98.5%	96.2%		7%	12%	11%	1.1		
